Assay results published in publication PMC8318231, “Rate-of-Kill (RoK) assays to triage large compound sets for Chagas disease drug discovery: Application to GSK Chagas Box” (PLoS Neglected Tropical Diseases, 2021).

System: T. cruzi intracellular amastigotes in H9c2 cells
Test: Rate-of-Kill (RoK) high-content imaging assay, amastigotes per cell (AM/CELL) and curve descriptors
Format: cell-based, Trypanosoma cruzi
Design: key to ME_24h / ME_48h / ME_72h: % reduction in parasite burden (cidal response); t50pct_MCC50 / t50pct_Cmax: unit not given here
Conditions: for ME_24h: 24h; for ME_48h: 48h; for ME_72h: 72h; for t50%_Cmax / tlag_Cmax / t50pct_Cmax: at Cmax; for ME_24h (%): maximum effect at 24 h; for ME_24h (%) / ME_48h (%) / ME_72h (%): RoK assay; for ME_48h (%): maximum effect at 48 h; for ME_72h (%): maximum effect at 72 h; for ME 24h (maximum effect at 24 hours, intracellular amastigotes): maximum percentage of parasite burden reduction reached by any concentration
Method in brief: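 H9c2 cardiomyocytes infected with T. cruzi trypomastigotes (MOI 8, 18 h), then compounds tested at 5 μM single shot or 11-point 1/3 dilution from 50 μM. DRAQ5-stained nuclei imaged over a time course. Amastigotes per cell normalised to infected cells at 4 h (0%) and non-infected cells (100%).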

Row | Structure (SMILES) | ME_24h (figure 5) | ME_48h (figure 5) | ME_72h (figure 5) | MCC50 (RoK curve descriptor) | MCCE (RoK curve descriptor) | AM/CELL NORM (Time 4, figure 4 A) | t50%_Cmax | tlag_Cmax | t50pct_Cmax (figure 5) | tlag_Cmax (figure 5) | t50%_MCC50 (at MCC50) | tlag_MCC50 (at MCC50) | t50pct_MCC50 (at MCC50, figure 5) | tlag_MCC50 (at MCC50, figure 5) | MCCE (figure 5) | MCC50 (figure 5, in µM) | ME_24h (%) | ME_48h (%) | ME_72h (%) | ME 24h (maximum effect at 24 hours, intracellular amastigotes) | other results
1 | O=C(NCC1CCCCC1)c1cc(=O)c2ccccc2o1 [TCMDC-123621] | 36.8077 | 33.2383 | 64.4668 | 5.6 µM | 0.6 µM | -5.701 | 72.0 h | 4.0 h | 72 | 4 | 72.0 h | 4.0 h | 72 | 4 | 0.6173 | 5.556 | 36.8% | 33.2% | 64.5% | 36.8077% | AM/CELL NORM (Time 24, figure 4 A): 30.3317; AM/CELL NORM (Time 48, figure 4 A): 33.2183; AM/CELL NORM (Time 72, figure 4 A): 64.4668
2 | Cl.O=c1cc(NCCCNC2CCOc3c(I)cc(Cl)cc32)[nH]c2ccccc12 (stereo not drawn) [TCMDC-139489] | 37.6706 | 64.7005 | 58.8587 | 5.6 µM | 0.2 µM | 5.191 | 48.0 h | 4.0 h | 48 | 4 | 72.0 h | 4.0 h | 72 | 4 | 0.2058 | 5.556 | 37.7% | 64.7% | 58.9% | 37.6706% | ME (maximum effect) in RoK assay (in words): high ME at 24 hours and 72 hours; tlag (in words): short tlag times; AM/CELL NORM (Time 24, figure 4 A): 37.6706; AM/CELL NORM (Time 48, figure 4 A): 64.7005; AM/CELL NORM (Time 72, figure 4 A): 58.8587
3 | Cc1cccc(N2CCCN(Cc3c[nH]c4ccccc34)CC2)n1 [TCMDC-143185] | 34.1143 | 65.81 | 87.1854 | 1.9 µM | 0.6 µM | -11.6177 | 48.0 h | 4.0 h | 48 | 4 | 48.0 h | 4.0 h | 48 | 4 | 0.6173 | 1.852 | 34.1% | 65.8% | 87.2% | 84.3328% | AM/CELL NORM (Time 24, figure 4 A): 35.9083; AM/CELL NORM (Time 48, figure 4 A): 66.1558; AM/CELL NORM (Time 72, figure 4 A): 81.0849
4 | O=C(NCCc1cccnc1)c1ccc(-c2ccccc2F)o1 [TCMDC-143190] | -188.225 | -99.3488 | 47.7023 | 5.6 µM | 0.2 µM |  | 72.0 h | 24.0 h | 72 | 24 | 72.0 h | 24.0 h | 72 | 48 | 0.2058 | 27.7778 | -188.2% | -99.4% | 47.7% | -116.413% | AM/CELL NORM (Time 4, sheet figure 4 A): 10.7478; AM/CELL NORM (Time 24, sheet figure 4 A): -116.413; AM/CELL NORM (Time 48, sheet figure 4 A): -106.707; AM/CELL NORM (Time 72, sheet figure 4 A): 59.1013
5 | COc1ccc(NS(=O)(=O)c2cc(-c3cc(C)[nH]n3)ccc2C)cc1OC [TCMDC-143194] | -114.917 | -675.674 | -796.23 | 16.7 µM | 1.2 µM | 17.4808 |  | 41.3 h | 72 | 41.3333 | 72.0 h | 24.0 h | 72 | 56 | 1.237 | 38.8889 | -114.9% | -675.7% | -796.2% | 24.095% | AM/CELL NORM (Time 24, figure 4 A): 13.7763; AM/CELL NORM (Time 48, figure 4 A): 30.9676; AM/CELL NORM (Time 72, figure 4 A): 53.1796
6 | O=S(=O)(c1cccc(CSc2nnc(-c3ccc4c(c3)OCO4)o2)c1)N1CCOCC1 [TCMDC-143197] | -16.5303 | 13.4442 | 33.635 |  | 0.07 µM |  |  | 4.0 h | 72 | 4 |  |  | 72 | 72 | 0.06859 |  | -16.5% | 13.4% | 33.6% | -16.5303% | AM/CELL NORM (Time 4, sheet figure 4 A): -18.4264; AM/CELL NORM (Time 24, sheet figure 4 A): -16.5303; AM/CELL NORM (Time 48, sheet figure 4 A): -6.567; AM/CELL NORM (Time 72, sheet figure 4 A): 29.0194; MCC50 (figure 5): 50 µM
7 | CC1CN(S(=O)(=O)c2ccc(NC(=O)c3cc(C4CC4)nc4c3cnn4C(C)C)cc2)CC(C)O1 (stereo not drawn) [TCMDC-143200] | 2.192 | 1.8894 | 56.9286 | 1.9 µM | 1.9 µM |  |  | 4.0 h | 72 | 4 | 72.0 h | 24.0 h | 72 | 24 | 1.852 | 1.852 | 2.2% | 1.9% | 56.9% | 2.192% | AM/CELL NORM (Time 4, sheet figure 4 A): -14.9286; AM/CELL NORM (Time 24, sheet figure 4 A): 2.192; AM/CELL NORM (Time 48, sheet figure 4 A): -23.2452; AM/CELL NORM (Time 72, sheet figure 4 A): 15.376
8 | O=C(NCCc1cccnc1)c1csc(-c2ccccc2)n1 [TCMDC-143203] | -222.428 | -89.2348 | 54.0545 | 5.6 µM | 0.6 µM |  | 72.0 h | 24.0 h | 72 | 24 | 72.0 h | 24.0 h | 72 | 48 | 0.6173 | 27.7778 | -222.4% | -89.2% | 54.1% | -177.566% | AM/CELL NORM (Time 4, sheet figure 4 A): 2.597; AM/CELL NORM (Time 24, sheet figure 4 A): -179.486; AM/CELL NORM (Time 48, sheet figure 4 A): -77.3027; AM/CELL NORM (Time 72, sheet figure 4 A): 80.8727
